“Also recorded” adds a separate entry of the source.
How the values were obtained:
[1] = tested on: colon cancer cell lines (RKO, Co115, HCT-116, SW48, LoVo); experiment: Apoptosis by flow cytometry (YO-PRO-1/propidium iodide); type: cell-based, human; set-up: apoptosis (propidium iodide): dose or concentration left out as unconfirmed; conditions: for apoptosis (propidium iodide): HDAC2-deficient RKO cells, 24 h with SAHA
Procedure: (§1) FIG. 5. […] Experiments were performed in triplicate.
(§2) Human colorectal and endometrial cancer cell lines were obtained from the American Type Culture Collection. HDAC inhibition treatment was developed adding 0.25 μM trichostatin A, 10 mM sodium valproate or 10 mM sodium butyrate to the culture medium for 24 hours. We obtained DNA samples from 228 human primary malignancies corresponding to colon tumors of HPNCC patients (n=47) and sporadic MSI+colon (n=127), MSI-colon (n=40), gastric (n=38) and endometrial carcinomas (n=16), as well as normal colon tissue (n=6), at the time of clinically indicated surgical procedures. Normal lymphocytes from healthy donors (n=50) was also used. DNA was extracted using standard protocols.
(§3) The percentage of apoptotic cells was determined by flow cytomery using Vybrant® Apoptosis Assay Kit #4-YO-PRO®-1/propidium iodide (Molecular Probes/Invitrogen). To analyze the cell cycle profiles, we stained with propidium iodide and the percentage of cells in G2/M was determined by flow cytometry.

[2] = tested on: histones H3 and H4 in colorectal cancer cell lines RKO, Co115, HCT-116, SW48 and LoVo; experiment: Histone H3 and H4 acetylation levels (western blot, HPCE) after treatment with HDAC inhibitors; type: cell-based, human; conditions: 24 hours
Source text: To address these issues we assessed the effects of three classical HDACis, the hydroxamic acid trichostatin A and the carboxylic acids butyrate and valproate, on five colorectal cancer cell lines: the HDAC2-mutant cell lines RKO and Co115, and the HDAC2-wild type cell lines HCT-116, SW48 and LoVo. We analyzed the acetylation levels at histones H3 and H4 using western blotting with antibodies raised against tetraacetylated peptides of histones H3 and […], and high-performance capillary electrophoresis (HPCE)^3. […] The HDAC2-deficient cells were resistant to trichostatin A action from a biochemical and also a cellular point of view.
as §2
We prepared histones in accordance with established protocols1. We obtained histones from cell lines and tumor samples in parallel with their matching controls under identical conditions. For cell lines, we isolated nuclei with RSB buffer (10 mM Tris 10 (pH 7.5), 10 mM NaCl and 3 mM MgCl2) containing I—Nonidet-P40 and protease inhibitors. We extracted nuclei with 0.25 M HCl and precipitated them with eight volumes of acetone. For tumors and their normal tissue counterparts, we homogenized samples with a Polytron homogenizer (Brinkman Instruments) in 0.25 M HCl and incubated them with gentle agitation for 4 h. We precipitated the resulting supernatant with eight volumes of acetone. We then fractionated individual histones by reverse-phase HPLC on a Jupiter C18 column. We made comparisons only between samples extracted with identical methodology.
For western blotting, we collected cells by centrifugation and washed cell pellets twice with phosphate-buffered saline buffer. For HDAC2 expression, nuclear extracts were fractionated on a 7.5% SDS-PAGE gel, transferred the fractions to a polyvinylidene difluoride membrane with […] (Immobilon PSQ, Millipore), blocked the membrane in 5% milk PBS-T (phosphate-buffered saline with 0.1% Tween-20) and immunoprobed it with antibodies to HDAC2 (1:1000) and HDAC1 (1:1000; both from Abcam). The acetylated forms of histones 3 and 4 were analyzed as previously described2. We extracted the histones directly from the cell pellets with 0.250 M HCl. We fractionated 10 μg of the acid-extracted proteins on a 10% SDS-PAGE gel. Transferred membranes were immunoprobed with antibodies to acetylated H4 (1:2,000, Upstate) and acetylated H3 (1:50,000, Upstate). We used horseradish peroxidase-conjugated antibody to rabbit IgG (Amersham) at 1:3,000 dilution in PBS-T as the secondary antibody and antibody to H4 (1:3,000; Upstate) as a loading control. For immunolocalization experiments, we grew cells on coverslips and stained them with antibodies against HDAC2 and HDAC1 (Abcam) as previously described. We obtained images with a Leica DMRD photomicroscope coupled to a Leica DC200 camera, processed them using Adobe Photoshop software and analyzed them using public National Institutes of Health Image software. Immunohistochemical staining of HDAC2 was performed using a polyclonal antibody (Abcam, Cambridge, UK) at a 1:1500 dilution. After antigen retrieval with citrate buffer, immunodetection was performed by the DAKO EnVision Visualization Method (DAKO, Glostrup, Denmark), with diaminobenzidine chromogen as the substrate
We quantified global histone H4 acetylation as previously described3. […]

[3] = tested on: colon cancer cell lines (RKO, Co115, HCT-116, SW48, LoVo); experiment: Cell viability (MTT assay) of colon cancer cell lines; type: cell-based, human; conditions: for inhibition of proliferation: all cancer cell lines independently of HDAC2 status
Procedure: Cells were treated for 48 h with different concentrations of TSA (0-1000 nM). Experiments were performed in triplicate.
as §1, §2
Cell viability was determined as previously described5. Aliquots of 1.5×10^4 cells were plated in 96-well microdilution plates. Following overnight cell adherence, experimental media containing the drugs or control media was added to appropriate wells. After 48 hours, the media was replaced by drug-free fresh media (100 μl/well) containing MTT (50 μg). After a 3 hour incubation at 37° C. in 5% CO2 atmosphere, the MTT was removed and MTT-formazan crystals were dissolved in DMSO (100 μl/well). Absorbance at 570 nm was determined on an automatized microtiter plate reader.

[4] = tested on: colon cancer cell lines (RKO, Co115, HCT-116, SW48, LoVo); experiment: Cell cycle analysis (percentage of cells in G2/M, propidium iodide flow cytometry); type: cell-based, human; conditions: for blockage of the cell cycle at G2/M: all cancer cell lines independently of HDAC2 status; for G2/M cell cycle arrest: TSA
Procedure: as §2, §3

[5] = tested on: HCT116, RKO and Co115 tumor xenografts; experiment: Mouse xenograft model with PBS, TSA and BUT treatments; type: in vivo, athymic nude mice
Source text: a, PBS, BUT and TSA treated female athymic nude mice 17 days after injection of RKO (left flank) and HCT116 (right flank) cells.
b, Tumors were excised and weighed. Tumor detail in cm and weight in mg for PBS-, BUT- and TSA-HCT116, RKO and C0115 cells.
c, Effect of the HDAC inhibitors TSA and sodium butyrate (But) on the in vivo growth of HCT116, RKO and C0115. Tumor size was monitored over time and size in mm3. Dark square: PBS treatment, Dark circle: TSA treatment, Dark triangle: BUT treatment.
Six-week-old female athymic nude mice nu/nu (Harlam Sprague-Dawley, Indianapolis, Ind.), housed under specific pathogen-free conditions (Institutional Animal Welfare Committee Agreement), were used for HCT116, RKO and Co115 tumor xenografts. For treatments, animals were randomly separated in three seven-specimens-groups, differentiated for PBS (Control), TSA (Trichostatin A) and BUT (Butyric acid) treatments. Both flanks of each animal were injected s.c. with 106 (HCT116) or 2×106 (RKO and CO115) cells in a total volume of 200 μL of PBS. For transfections assays both flanks of each animal were injected subcutaneously with 2×106 RKO (left) or RKO-HDAC2-transfected (right) cells in a total volume of 200 μL of PBS. Tumor development at the site of injection was evaluated daily. Animals were sacrificed at 21 days. The tumors were then excised and weighed.

[6] = tested on: RKO-HDAC2-transfected cells; experiment: H4 acetylation by HPCE in RKO cells transfected with HDAC2; type: cell-based, human; conditions: RKO cells transfected with wild-type HDAC2
Source text: b, Quantification of H4 acetylation by HPCE.
(§4) We quantified global histone H4 acetylation as previously described3. We prepared individual histone fractions from cell nuclei and purified them by reverse-phase HPLC on a Jupiter C18 column (Phenomenex, Inc.) with an acetonitrile gradient (20-60%) in 0.3% trifluoroacetic acid, using a HPLC gradient system (Beckman-Coulter). We resolved non-, mono, di-, tri- and tetra-acetylated histone H4 derivatives by HPCE. We used an uncoated fused-silica capillary (Beckman-Coulter; 60.2 cm 75 μm, effective length 50 cm) in a capillary electrophoresis system (P/ACE MDQ, Beckman-Coulter) with 100 mM phosphate buffer (pH 2.0) 0.02% (w/v) HPM-cellulose as running buffer and operating voltages of 12 kV.
The HDAC2 expression vector pcDNA3-HDAC2 was constructed by cloning the cDNA corresponding to the gene HDAC2 in pcDNA vector (Invitrogen). […] C1ones expressing HDAC2 were selected in complete medium supplemented with 1 mg/mL G418. Stable clones were maintained in complete medium with 1 mg/mL G418. For colony formation experiments, stable G418-resistant colonies were fixed, stained with 2% methylene blue in 60% methanol, and the average number of colonies present in each well was determined.

[7] = tested on: HDAC2-knocked down HCT116 cells; type: cell-based, human
Source text: as §4

[8] = all colorectal cell lines irrespective of HDAC2 status, 10 mM sodium valproate or 10 mM sodium butyrate
[9] = all cancer cell lines independently of HDAC2 status
[10] = HDAC2-proficient cell lines, TSA
[11] = HDAC2-proficient cell lines, TSA, listed as TSA

SMILES: O=C(CCCCCCC(=O)Nc1ccccc1)NO [SAHA, suberoylanilide hydroxamic acid]
- apoptosis (propidium iodide) [1]: enhanced resistance
- apoptosis (propidium iodide) ([1]; listed as suberoylanilide hydroxamic acid (SAHA)): unable to efficiently inhibit cell growth and induce apoptosis

SMILES: CCCC(=O)[O-].[Na+] [butyrate, sodium butyrate]
- hyperacetylation of histones H3 and H4 [2, 8]: induce hyperacetylation in all cells; also recorded: able to induce hyperacetylation
- inhibition of proliferation [3]: significantly inhibited proliferation
- induction of apoptosis [1, 9]: induced apoptosis
- blockage of the cell cycle at G2/M [4]: able to induce blockage of the cell cycle at G2/M
- tumor shrinkage ([5]; all cancer cell lines xenografted in nude mice (HCT-116, RKO, Co115), independently of HDAC2 status): induced tumor shrinkage

SMILES: CC(/C=C/C(=O)NO)=C\[C@@H](C)C(=O)c1ccc(N(C)C)cc1 [trichostatin A]
- hyperacetylation of histones H3 and H4 ([2]; HDAC2-deficient RKO and Co115 cell lines, 0.25 μM trichostatin A): unable to induce the hyperacetylation
- hyperacetylation of histones H3 and H4 ([2]; HDAC2-deficient RKO and Co115 cell lines, 0.25 μM trichostatin A, listed as TSA): does not induce histone hyperacetylation
- hyperacetylation of histones H3 and H4 ([2]; HDAC2-wild type cells (HCT-116, SW48, LoVo), 0.25 μM trichostatin A): effective
- hyperacetylation of histones H3 and H4 ([2]; HDAC2-wild type cells (HCT-116, SW48, LoVo), 0.25 μM trichostatin A, listed as TSA): hyperacetylation is achieved
- biochemical and cellular (antiproliferative and proapoptotic) effects of HDAC inhibitors ([3]; HDAC2-deficient cancer cells, general statement): resistant; also recorded: impairs
- cell growth inhibition ([3]; HDAC2-deficient cells (RKO, Co115), TSA 0-1000 nM, 48 h): remained highly resistant
- cell growth inhibition ([3]; HDAC2-deficient cells (RKO, Co115), TSA 0-1000 nM, 48 h, listed as TSA): marked resistance; also recorded: enhanced resistance
- cell growth inhibition [3, 10]: only able to accomplish these effects in the HDAC2-proficient cell lines
- cell growth inhibition [3, 11]: induces
- induction of apoptosis ([1]; HDAC2-mutant cells (RKO), TSA): remained highly resistant
- induction of apoptosis ([1]; HDAC2-mutant cells (RKO), TSA, listed as TSA): marked resistance
- induction of apoptosis [1, 10]: only able to accomplish these effects in the HDAC2-proficient cell lines
- induction of apoptosis [1, 11]: induces
- G2/M cell cycle arrest ([4]; HDAC2-mutant cells (RKO)): remained highly resistant
- G2/M cell cycle arrest ([4]; HDAC2-mutant cells (RKO), listed as TSA): marked resistance
- G2/M cell cycle arrest ([4]; HDAC2-proficient cell lines): only able to accomplish these effects in the HDAC2-proficient cell lines
- G2/M cell cycle arrest ([4]; HDAC2-proficient cell lines, listed as TSA): induces
- tumor shrinkage ([5]; HDAC2-mutant RKO and Co115 xenografts in nude mice): remained highly resistant
- tumor shrinkage ([5]; HDAC2-mutant RKO and Co115 xenografts in nude mice, listed as TSA): remained resistant
- tumor shrinkage ([5]; HDAC2-proficient HCT-116 xenografts in nude mice): only able to accomplish these effects in the HDAC2-proficient cell line (HCT-116)
- histone H4 acetylation mediated by TSA (HPCE) [6]: more sensitive
- histone H4 acetylation mediated by TSA (HPCE) ([6]; listed as TSA): show resistance to histone acetylation
- histone H4 acetylation mediated by TSA (HPCE) [7]: resistant to histone acetylation; also recorded: resistance

SMILES: CCCC(CCC)C(=O)[O-].[Na+] [valproate, sodium valproate]
- hyperacetylation of histones H3 and H4 [2, 8]: induce hyperacetylation in all cells; also recorded: able to induce hyperacetylation
- inhibition of proliferation [3]: significantly inhibited proliferation
- induction of apoptosis [1, 9]: induced apoptosis
- blockage of the cell cycle at G2/M [4]: able to induce blockage of the cell cycle at G2/M
